The test deals with THP-1 human monocytic cells. The experiment in a line: LPS-stimulated cytokine (TNF-α, IL-8) production in THP-1 cells. In kind it is cell-based. To be noted: 5 μM or 10 μM, 2 hr preincubation, 5 hr LPS stimulation, FIG. 2. As to the method: Amounts of TNF-α, IL-6, IL-8 and IL-10 were determined using the ELISA kits obtained from Genzyme following the manufacturer's instructions.
THP-1 control cells were harvested, washed and set up in RPMI 1640, 10% fetal calf serum, at a concentration of 2.56×10^6 cells/ml. Phosphate buffered saline ("PBS") or one of the two respective polypeptides SV40MEM or SV40 (a peptide having only the SV40 large T antigen NLS sequence) were added to the cells at a concentration of 10 μM or 20 μM. The cells were then plated into a 96-well plate with 0.1 ml/well. The plate was then incubated for 2 hr at 37° C. in a 5% CO2 atmosphere. Following the initial incubation, media or a titration of LPS was added to each of the wells in a volume of 0.1 ml. Thus, the final concentrations of polypeptides were 5 μM or 10 μM. Following 5 hr of LPS stimulation, supernatants were taken and TNF-α and IL-8 levels were determined by ELISA. In addition, cells treated with PBS or polypeptides, but not incubated with LPS, were removed at the time of supernatant removal to determine the viability of the cells following 7 hr of contact with the polypeptides.
This experiment was conducted to compare the inhibitory effect of the SV40MEM polypeptide and other inhibitory polypeptides on LPS induction of cytokine production. THP-1 control cells (ATCC 9/95 stock) were harvested, washed and set up in RPMI 1640, 10% fetal calf serum as described in Example 2. The cells were incubated for 2 hr with PBS or (1) the FGF signal sequence, (2) a polypeptide having the FGF signal sequence and the NLS of NF-κB p50 on the carboxy terminus of the signal sequence, (3) the SV40MEM polypeptide comprised of L-amino acids, or (4) the SV40MEM polypeptide comprised of D-amino acids at a final concentration of 5 μM. The cells were then plated into a 96-well plate with 0.1 ml/well. The plate was then incubated for 2 hr at 37° C. in a 5% CO2 atmosphere. Following the initial incubation, media or a titration of LPS was added to each of the wells in a volume of 0.01 ml/well. Following 5 hr of LPS stimulation, supernatants were taken and TNF-α levels were determined by ELISA.

Consider “PKKKRKVAAVALLPAVLLALLAPKKKRKVC [SV40MEM, FGF signal peptide hydrophobic region flanked by SV40 large T antigen NLS]”, for which the TNF-α production entry is listed as “inhibited TNF-α production in a dose-dependent manner”.

For the origin of these results see US5962415A, “Compositions comprising a peptide inhibitor of nuclear protein translocation and an immunosuppressant and methods of use thereof” (Bristol-Myers Squibb Co., priority 1998, dated 1999).
